Results on one molecule are retold here after US20090306219A1, “TOPICAL USE OF PLANT EXTRACT FOR SKIN DETOXIFICATION” (priority 2008, published 2009).

One assay deals with glyoxalase I. Nature of the assay: Quantification of Glyoxalase I via immunoassay (western blot) in keratinocyte culture. Format: cell-based. The conditions noted are these: 0.0005%, keratinocyte culture treated 24 hrs. How it is done:
The blots were then transferred and probed with a fluorescent anti-body to glyoxalse I, purchased from Santa Cruz Biotechnology. Absorbance was measured and graphed.

Another assay deals with glutathione. Nature of the assay: ELISA quantification of glutathione in keratinocyte culture. Format: cell-based. The conditions noted are these: 0.0005%, Treatment. How it is done:
In simple terms, in ELISA an unknown amount of antigen is affixed to a surface, and then a specific antibody is washed over the surface so that it can bind to the antigen. […] This antibody is linked to an enzyme, and in the final step a substance is added that the enzyme can convert to some detectable signal. Thus in the case of fluorescence ELISA, when light is shone upon the sample, any antigen/antibody complexes will fluoresce so that the amount of antigen in the sample can be measured.
The ELISA kit used in this experiment was purchased from Cayman Chemicals. The experiment was performed as per the manufacturer's directions.
Background: ELISA stands for enzyme-linked immunosorbent assay.

Take `C=CCSSSCC=C` [Diallyl Trisulfide]: in the assay with glyoxalase I (replicate 1), the “Inv OD 1” value was 91.6 and the OD1 turned out to be 125.205. Besides, in the assay on glyoxalase I (replicate 2), the “Inv OD 2” value is 90.7 and the “OD 2” value is 126.011. In the assay on glyoxalase I (replicate 3), the “Inv OD 3” value turned out to be 71.1 and the “OD 3” value is 145.641. Besides, in the assay with glyoxalase I (replicate 4), the “Inv OD 4” value stood at 129.4 and the OD4 stood at 87.372. Moreover, in the assay on glyoxalase I (replicate 5), the “Inv OD 5” value turned out to be 93.0 and the “OD 5” value amounted to 123.78. For the same molecule, in the assay on glyoxalase I (replicate 6), the “Inv OD 6” value came to 86.2 and the “OD 6” value was determined as 130.525. In addition, the “Inv OD Mean” value in the assay on glyoxalase I (significantly different from Untreated (mean 66.5)) was found to be 93.7. Also, in the assay on glutathione (Untreated mean 19), the “Glut Mean” value turned out to be 21. The “Glut 1” value with glutathione (replicate 1, Untreated 18) came to 20. Further, the “abs 1” value in the assay on glutathione (replicate 1 absorbance) amounted to 0.033. Further, in the assay with glutathione (replicate 2, Untreated 20), the “Glut 2” value is 22. Moreover, the “abs 2” value in the assay with glutathione (replicate 2 absorbance) came out at 0.036. In addition, the “Glut 3” value in the assay on glutathione (replicate 3, Untreated 20) is listed as 20. Also, the “abs 3” value in the assay with glutathione (replicate 3 absorbance) is 0.034.
